Data on 36 compounds can be found in patent US20260337211A1, “IP5 SUBSTITUTED COMPOUNDS” (SANIFIT THERAPEUTICS, S.A., priority 2022, published 2026).

Counter-ions that a name gives are not always drawn.

One assay in a line: In vitro inhibition of calcium phosphate crystallization in human plasma (spectrophotometric, 550 nm). To be noted: 0-100 μM compound, 1.5 mM phosphate and 12.5 mM calcium, pH 7.4, 30 min at rt, slope between 6 and 24 min, 30 min, read-out: Relative Potency (EC50). The format is biochemical. The protocol:
The in vitro efficacy of the IP5 substituted compounds (e.g., Compounds 1 to 32) of the invention on the inhibition of calcium phosphate crystallization in human plasma samples was evaluated according to a spectrophotometric assay previously described in the art (Ferrer M, et al., Sci Rep 2017; 7:6858, doi:10.1038/s41598-017-07203-x).
A 96-well plate was employed. Plasma was spiked (1 volume of the IP5 substituted compounds of the invention per 19 volumes of plasma) with increasing concentrations of the derivatives in the range of 0-100 μM. Plasma was then centrifuged at 10,000 g at rt and subsequently mixed with a mixture of 5 mM hydrogen phosphate and 41.67 mM calcium to attain final concentrations of 1.5 mM phosphate and 12.5 mM calcium, respectively. All reagent solutions were filtered, and pH adjusted to 7.4.
Crystallization of calcium phosphate was monitored spectrophotometrically for 30 min at rt by measuring the increments in absorbance at 550 nm using the Biotek Powerwave XS Microplate spectrophotometer (BioTek Instruments, Inc., Winooski, VT, US). The plate was incubated at rt in an orbital shaker and absorbance measured every 3 min.
Plasma crystallization was assessed based on slope measurement in the linear range between 6 and 24 min from plots of increase in absorbance versus logarithm of time. The efficacy of different myo-inositol phosphates derivatives in preventing in vitro formation of calcium phosphate crystals was assessed in human plasma samples using the slopes obtained between 6- and 24-min. Inhibition of crystallization was measured by comparing the slopes of the control sample (blank plasma) with those of samples containing the inhibitor as shown below: […]
Turning to `O=P(O)(O)OC1C(OCCCCCC(F)(F)F)C(OP(=O)(O)O)C(OP(=O)(O)O)C(OP(=O)(O)O)C1OP(=O)(O)O` (racemic) [Compound 50, rac-1-O-(6,6,6-Trifluorohexyl)-myo-inositol-2,3,4,5,6-pentakis(phosphate) decasodium salt], the concentration giving a half-maximal response (EC50) lay within 5 to 10 µM.

The assay is the same for the next values; noted with them: 0-100 μM compound, 1.5 mM phosphate and 12.5 mM calcium, pH 7.4, 30 min at rt, slope between 6 and 24 min, read-out: Relative Potency (EC50).
Turning to “5-O-(9-Methoxynonyl)-myo-inositol-1,2,3,4,6-pentakis(phosphate) decasodium salt [Compound 31]”, the 50% effective concentration (EC50) was in the range of 5 to 10 µM.

As to “rac-4-O-(10-Hydroxydecyl)-myo-inositol-1,2,3,5,6-pentakis(phosphate) decasodium salt [Compound 21]”, the EC50 is more than 10 µM.

For `NC(=O)CCCCCOC1C(OP(=O)(O)O)C(OP(=O)(O)O)C(OP(=O)(O)O)C(OP(=O)(O)O)C1OP(=O)(O)O` (racemic) [Compound 33, rac-4-O-(6-Amino-6-oxohexyl)-myo-inositol-1,2,3,5,6-pentakis(phosphate) decasodium salt], the concentration giving a half-maximal response (EC50) was not above 5 µM.

With “rac-4-O-(7-Methoxyheptyl)-myo-inositol-1,2,3,5,6-pentakis(phosphate) decasodium salt [Compound 23]”, the EC50 is 5 to 10 µM.

Consider “rac-4-O-(6-(4-(carboxy)-1H-1,2,3-triazol-1-yl)hexyl)-myo-inositol-1,2,3,5,6-pentakis(phosphate) undecasodium salt [Compound 26]”, for which the EC50 was more than 10 µM.

“rac-4-O-(6-Aminohexyl)-myo-inositol-1,2,3,5,6-pentakis(phosphate) decasodium salt [Compound 28]”: the EC50 was not above 5 µM.

Consider `CC(C)CCCOC1C(OP(=O)(O)O)C(OP(=O)(O)O)C(OP(=O)(O)O)C(OP(=O)(O)O)C1OP(=O)(O)O` (racemic) [Compound 12, rac-4-O-(4-Methylpentyl)-myo-inositol-1,2,3,5,6-pentakis(phosphate) decasodium salt], for which the EC50 was in the range of 5 to 10 µM.

`O=C(O)CCc1cn(CCCOC2C(OP(=O)(O)O)C(OP(=O)(O)O)C(OP(=O)(O)O)C(OP(=O)(O)O)C2OP(=O)(O)O)nn1` (racemic) [Compound 25, rac-4-O-(3-(4-(2-carboxyethyl)-1H-1,2,3-triazol-1-yl)propyl)-myo-inositol-1,2,3,5,6-pentakis(phosphate) undecasodium salt]: the EC50 was more than 10 µM.

As for “rac-1-O-(9-Methoxynonyl)-myo-inositol-2,3,4,5,6-pentakis(phosphate) decasodium salt [Compound 47]”, the 50% effective concentration (EC50) is not above 5 µM.

Consider “rac-4-O-(5-Acetamidopentyl)-myo-inositol-1,2,3,5,6-pentakis(phosphate) decasodium salt [Compound 19]”, for which the EC50 is 5 to 10 µM.

As for “5-O-Propyl-myo-inositol-1,2,3,4,6-pentakis(phosphate) decasodium salt [Compound 29]”, the EC50 fell in the range of 5 to 10 µM.

`NCCCOC1C(OP(=O)(O)O)C(OP(=O)(O)O)C(OP(=O)(O)O)C(OP(=O)(O)O)C1OP(=O)(O)O` (racemic) [Compound 27, rac-4-O-(3-Aminopropyl)-myo-inositol-1,2,3,5,6-pentakis(phosphate) decasodium salt]: the EC50 is not above 5 µM.

In the case of `O=P(O)(O)O[C@@H]1[C@@H](OP(=O)(O)O)[C@H](OP(=O)(O)O)[C@H](OCCC2CCCC2)[C@H](OP(=O)(O)O)[C@H]1OP(=O)(O)O` [Compound 38, 2-O-(2-Cyclopentylethyl)-myo-inositol-1,3,4,5,6-pentakis(phosphate) decasodium salt], the EC50 was in the range of 5 to 10 µM.

With `NC(=O)CCCCCO[C@H]1[C@@H](OP(=O)(O)O)[C@H](OP(=O)(O)O)[C@@H](OP(=O)(O)O)[C@H](OP(=O)(O)O)[C@H]1OP(=O)(O)O` [Compound 37, 2-O-(6-Amino-6-oxohexyl)-myo-inositol-1,3,4,5,6-pentakis(phosphate) decasodium salt], the concentration for a half-maximal effect (EC50) lay within 5 to 10 µM.

Take “rac-1-O-(2-Cyclopropylethyl)-myo-inositol-2,3,4,5,6-pentakis(phosphate) decasodium salt [Compound 48]”: the EC50 was not above 5 µM.

With “2-O-Pentyl-myo-inositol-1,3,4,5,6-pentakis(phosphate) decasodium salt [Compound 6]”, the EC50 is not above 5 µM.

In the case of “2-O-(5-Methoxypentyl)-myo-inositol-1,3,4,5,6-pentakis(phosphate) decasodium salt [Compound 7]”, the EC50 was 5 to 10 µM.

Turning to “2-O-Propargyl-myo-inositol-1,3,4,5,6-pentakis(phosphate) decasodium salt [Compound 43]”, the concentration for a half-maximal effect (EC50) was 5 to 10 µM.

Consider `Cc1ccc(CCCOC2C(OP(=O)(O)O)C(OP(=O)(O)O)C(OP(=O)(O)O)C(OP(=O)(O)O)C2OP(=O)(O)O)cc1` (racemic) [Compound 11, rac-4-O-(3-(p-Tolyl)propyl)-myo-inositol-1,2,3,5,6-pentakis(phosphate) decasodium salt], for which the EC50 lay within 5 to 10 µM.

For the compound `O=P(O)(O)OC1C(OCCCc2cccc(C(F)(F)F)c2)C(OP(=O)(O)O)C(OP(=O)(O)O)C(OP(=O)(O)O)C1OP(=O)(O)O` (racemic) [Compound 15, rac-4-O-(3-(3-(Trifluoromethyl)phenyl)propyl)-myo-inositol-1,2,3,5,6-pentakis(phosphate) decasodium salt], the concentration for a half-maximal effect (EC50) is 5 to 10 µM.

With “rac-1-O-(5-Acetamidopentyl)-myo-inositol-2,3,4,5,6-pentakis(phosphate) decasodium salt [Compound 49]”, the 50% effective concentration (EC50) fell in the range of 5 to 10 µM.

For `O=P(O)(O)OC1C(OCCC2CC2)C(OP(=O)(O)O)C(OP(=O)(O)O)C(OP(=O)(O)O)C1OP(=O)(O)O` (racemic) [Compound 17, rac-4-O-(2-Cyclopropylethyl)-myo-inositol-1,2,3,5,6-pentakis(phosphate) decasodium salt], the 50% effective concentration (EC50) lay in the range of 5 to 10 µM.

Consider `O=P(O)(O)OC1C(OCCCCCO)C(OP(=O)(O)O)C(OP(=O)(O)O)C(OP(=O)(O)O)C1OP(=O)(O)O` (stereo not drawn) [Compound 40, 2-O-(5-Hydroxypentyl)-myo-inositol-1,3,4,5,6-pentakis(phosphate) decasodium salt], for which the EC50 was in the range of 5 to 10 µM.

For the compound “rac-4-O-(5-Methoxypentyl)-myo-inositol-1,2,3,5,6-pentakis(phosphate) decasodium salt [Compound 3]”, the concentration for a half-maximal effect (EC50) was not above 5 µM.

Consider “5-O-(6,6,6-Trifluorohexyl)-myo-inositol-1,2,3,4,6-pentakis(phosphate) decasodium salt [Compound 45]”, for which the EC50 lay in the range of 5 to 10 µM.

With “rac-4-O-(10-Carboxyldecyl)-myo-inositol-1,2,3,5,6-pentakis(phosphate) undecasodium salt [Compound 20]”, the EC50 is more than 10 µM.

Turning to `O=P(O)(O)OC1C(OCCCCCn2cccn2)C(OP(=O)(O)O)C(OP(=O)(O)O)C(OP(=O)(O)O)C1OP(=O)(O)O` (racemic) [Compound 18, rac-4-O-(5-(1H-Pyrazol-1-yl)pentyl)-myo-inositol-1,2,3,5,6-pentakis(phosphate) decasodium salt], the EC50 lay within 5 to 10 µM.

With `COCCCCCCCCCCCCCCCCCCCCCCCCCCCCCO[C@H]1[C@@H](OP(=O)(O)O)[C@H](OP(=O)(O)O)[C@@H](OP(=O)(O)O)[C@H](OP(=O)(O)O)[C@H]1OP(=O)(O)O` [Compound 10, 2-O-(29-methoxynonacosyl)-myo-inositol-1,3,4,5,6-pentakis(phosphate) decasodium salt], the EC50 is not above 5 µM.

As for “rac-4-O-Propyl-myo-inositol-1,2,3,5,6-pentakis(phosphate) decasodium salt [Compound 24]”, the EC50 was not above 5 µM.

With “rac-4-O-(2-(4-Acetylpiperazin-1-yl)ethyl)-myo-inositol-1,2,3,5,6-pentakis(phosphate) decasodium salt [Compound 5]”, the EC50 was not above 5 µM.

As to `O=P(O)(O)OC1C(OCCC2CC2)C(OP(=O)(O)O)C(OP(=O)(O)O)C(OP(=O)(O)O)C1OP(=O)(O)O` (stereo not drawn) [Compound 39, 2-O-(2-Cyclopropylethyl)-myo-inositol-1,3,4,5,6-pentakis(phosphate) decasodium salt], the EC50 was in the range of 5 to 10 µM.

As to “rac-1-O-((1-(2-(Metoxycarbonyl)ethyl)-1H-1,2,3-triazol-4-yl)methyl)-myo-inositol-2,3,4,5,6-pentakis(phosphate) undecasodium salt [Compound 53]”, the EC50 lay within 5 to 10 µM.

For “rac-1-O-(5-(4-(Methoxymethyl)-1H-1,2,3-triazol-1-yl)pentyl)-myo-inositol-2,3,4,5,6-pentakis(phosphate) decasodium salt [Compound 52]”, the EC50 was 5 to 10 µM.

Consider `COCc1cn(CCCCCOC2C(OP(=O)(O)O)C(OP(=O)(O)O)C(OP(=O)(O)O)C(OP(=O)(O)O)C2OP(=O)(O)O)nn1` (stereo not drawn) [Compound 46, 5-O-(5-(4-(Methoxymethyl)-1H-1,2,3-triazol-1-yl)pentyl)-myo-inositol-1,2,3,4,6-pentakis(phosphate) decasodium salt], for which the EC50 was more than 10 µM.

Regarding “2-O-(19-methoxynonadecyl)-myo-inositol-1,3,4,5,6-pentakis(phosphate) decasodium salt [Compound 9]”, the EC50 was more than 10 µM.
